Experimental data published in article PMC8587043, “An Investigation into the Interaction between Double Hydroxide-Based Antioxidant Benzophenone Derivatives and Cyclooxygenase 2” (Molecules, 2021).

Legend:
COX2 = target: T1, COX2 (Homo sapiens, UniProt P35354); assay: Fluorescence quenching of COX2 (Stern-Volmer, double logarithm, thermodynamic parameters); format: binding; details: for Kq (bimolecular quenching constant): Kq = Ksv/τ0
T1 construct: purchased Sino Biological Co. (Beijing, China)
T1 sequence (P35354 18-604): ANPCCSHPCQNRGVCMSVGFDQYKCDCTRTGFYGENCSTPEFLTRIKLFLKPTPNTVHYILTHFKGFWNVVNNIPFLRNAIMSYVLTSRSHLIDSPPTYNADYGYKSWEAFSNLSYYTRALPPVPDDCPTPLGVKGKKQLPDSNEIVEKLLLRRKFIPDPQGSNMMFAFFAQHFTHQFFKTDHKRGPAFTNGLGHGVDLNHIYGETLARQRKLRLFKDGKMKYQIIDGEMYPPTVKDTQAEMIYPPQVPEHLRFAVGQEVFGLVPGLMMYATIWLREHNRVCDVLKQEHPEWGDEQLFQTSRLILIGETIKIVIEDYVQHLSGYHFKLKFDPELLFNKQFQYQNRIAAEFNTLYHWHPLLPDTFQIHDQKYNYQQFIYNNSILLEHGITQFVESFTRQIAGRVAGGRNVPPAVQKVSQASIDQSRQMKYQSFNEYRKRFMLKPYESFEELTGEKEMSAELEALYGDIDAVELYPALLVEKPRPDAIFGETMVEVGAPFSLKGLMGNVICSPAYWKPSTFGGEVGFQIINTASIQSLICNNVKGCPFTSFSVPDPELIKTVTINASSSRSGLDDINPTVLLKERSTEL
Source text: The emitted fluorescence spectra of COX2 solution (6.0 × 10^−8 mol∙L^−1) without and with an increasing concentration of compounds DB2, SC2 or YB2 (7.5 × 10^−6 mol∙L^−1 to 4.5 × 10^−5 mol∙L^−1) at different temperatures are shown in Figure 4a,b, Figure 4c,d or Figure 4e,f, respectively. […] The quenching constant Kq and Stern–Volmer constant Ksv at different temperatures are usually used to identify the quenching mechanisms, static or dynamic. The former is caused by ground-state complex formation, the latter is diffusion. For the static quenching mechanism, the quenching constant decreases with temperature increase. In this part, we calculated the Kq and Ksv values by using a universally accepted Stern–Volmer equation [38]:(1) F0/F=1+Kqτ0[Q]=1+Ksv[Q] where F0 and F are the protein fluorescence intensities in the absence and the presence of quencher (compounds DB2, SC2 or YB2), respectively. Kq = Ksv/ τ0 . τ0 is the fluorescence lifetime of the fluorophore without the quencher ([…]). [Q] is the concentration of quencher. The Stern-Volmer plots of COX2 fluorescence quenching by compounds DB2, SC2 or YB2 are presented in Figure 5a, Figure 5b or Figure 5c, respectively. According to Table 1, the Ksv and Kq values for all three systems (COX2-DB2, COX2-SC2 and COX2-YB2) decreased with increasing temperature. Therefore, we considered that the quenching was static quenching. To further verify that the system was static quenching, dynamic quenching was assumed first.
For the static quenching, we can use the double logarithm equation to obtain the binding constant (KA) and the number of binding sites per protein (n):(2) lgF0−F/F=lgKA+nlg[Q]
There are four main kinds of non-covalent forces between drugs and proteins. These are electrostatic force, hydrogen bonding, hydrophobic force and van der Waals force. The kind of interaction between compounds DB2, SC2 or YB2 and COX2 can be obtained from thermodynamic parameters, including the free energy change (ΔG), enthalpy change (ΔH) and entropy change (ΔS) of the reaction. The three thermodynamic parameters can be obtained according to the published equations [42, 44]:(3) ΔG=−RTlnK (4) lnK2/K1=ΔH(1/T1−1/T2)×1/R (5) ΔG=ΔH−TΔS
The fluorescence intensity of the system was measured with a 1.0 cm quartz cell. COX2 protein was dissolved in PBS for a final concentration of 6.0 × 10^−8 mol∙L^−1. DB2, SC2 or YB2 stock solutions were prepared in singleton at 1.5 × 10^−3 mol∙L^−1 in PBS containing 0.1% DMSO. 2.0 mL COX2 solution was separately titrated by continuing additions of 10 μL compounds DB2, SC2 or YB2 solution). After incubation at 298 K or 310 K, fluorescence quenching spectra were recorded in the region 325-450 nm at a scan rate of 1200 nm∙min^−1. The local environment of Tyr and Trp residues was quite sensitive at 280 nm, so the excitation wavelength was set at this wavelength. Typically, 280 nm is also used to measure the changes in protein tertiary structure. The slit widths of emission and excitation were both fixed at 10 nm. To observe spectra behaviors of Tyr and Trp groups of COX2, the wavelength interval between the excitation and emission wavelengths (Δλ) was set as 15 nm and 60 nm, respectively. Three-dimensional fluorescence spectroscopy was obtained for an excitation range of 200–300 nm and an emission range of 325–400 nm. Appropriate buffer solutions, determined under the same operation conditions, were used as blanks. Each spectrum was recorded three times.

EA.hy926 cells = assay: Protective effect against H2O2-induced oxidative damage, MTT assay; format: cell-based, human; details: for EC50: Homo sapiens, EA.hy 926, 4 h, protection against H2O2-induced damage (400 µmol·L^−1, 4 h), n = 3, mean ± SD; for protection rate compared with positive controls (fenofibrate and quereetin): statistical comparison
Procedure: Hydrogen peroxide (H2O2), a small molecule and functions as oxidative stress and a second messenger which contributes to cell damage or death, could directly induce inflammation in several cell lines. H2O2-induced cell damage is a commonly used model for antioxidant activity evaluation. […] Thus, the concentration of 400 µmol·L^−1 at 4 h was chosen as the model.
Compound SC2 stock solutions were prepared in DMSO. The stock solutions were diluted with FBS free DMEM to different target concentrations (DMSO concentrations ≤ 0.5% v:v). Cells (100 μL, 2 × 10^5 cells∙mL^−1) were seeded on 96-well plates and cultured for 24 h. The medium was then replaced with fresh media containing H2O2 with different concentrations (0, 100, 200, 300, 400, 500, and 600 μmol·L^−1 in FBS free DMEM) and compound SC2 (50, 40, 30, 20, 10 µmol·L^−1), which were transferred to the incubator and cultured for additional time (2, 4, and 6 h). The medium was then replaced with 100 μL of FBS free DMEM and MTT (10 μL, 5 mg·mL^−1 in PBS) and after 4 h the medium was replaced with DMSO (100 μL). A microplate reader (SpectraMaxPlus384, Molecular Devices, United States) was used to record the absorbance at 490 nm for each well of the plates. Cell viability was measured via MTT assay. Survival rate (%) = (Asample group/Acontrol group) × 100%.
Cells (100 μL, 2 × 10^5 cells·mL^−1) were seeded in 96-well plates for 24 h. Cells were treated with different groups and cell viability was measured via MTT assay. The protection rates to oxidative damage were determined and EC50 values were calculated. The protection rates to cells were calculated using the following formula: Protection rate (%) = (Apretreatment group − Amodel group)/(Acontrol group − Amodel group) × 100%.

Row | Compound | EC50 (EA.hy926 cells) | protection rate compared with positive controls (fenofibrate and quereetin) (EA.hy926 cells) | further results
1 | [3-isobutyl-4-methoxy-5 -(pyrrolidine-1-carbonyl)-phenyl]-butyric acid ethyl ester [Control compound, reference compound] |  |  | KA (binding constant) (COX2; 298 K): 4436.3 ± 718.24 L/mol; Ksv (Stern-Volmer quenching constant) (COX2; 298 K): 1.71 ± 0.297 ×10^4 L∙mol^−1; n (number of binding sites per protein) (COX2; 298 K): 0.947 ± 0.116; Kq (bimolecular quenching constant) (COX2; 298 K): 1.71 ± 0.297 ×10^12 L∙mol^−1∙S^−1; KA (binding constant) (COX2; 310 K): 1417.0 ± 92.261 L/mol; Ksv (Stern-Volmer quenching constant) (COX2; 310 K): 1.05 ± 0.157 ×10^4 L∙mol^−1; n (number of binding sites per protein) (COX2; 310 K): 0.785 ± 0.0195; Kq (bimolecular quenching constant) (COX2; 310 K): 1.05 ± 0.157 ×10^12 L∙mol^−1∙S^−1
2 | CCCCc1ccc(C(=O)c2cc(O)c(O)cc2Br)cc1 [DB1] | 7080 ± 92.6 nM |  | 
3 | O=c1c(O)c(-c2ccc(O)c(O)c2)oc2cc(O)cc(O)c12 [Quereetin, quercetin, reference compound] | 7980 ± 1230 nM |  | 
4 | CC(C)Cc1ccc(C(=O)c2c(Cl)cc(O)c(O)c2O)cc1 [YC2] | 3850 ± 925 nM | no significant difference | 
5 | CC(C)(C)c1ccc(C(=O)c2c(Br)cc(O)c(O)c2O)cc1 [SB2] | 25.2 ± 12.2 nM | no significant difference | 
6 | CC(C)Cc1ccc(C(=O)c2cc(O)c(O)cc2Br)cc1 [YB1] | 8510 ± 957 nM |  | 
7 | CCCCc1ccc(C(=O)c2cc(O)c(O)cc2Cl)cc1 [DC1] | 3310 ± 242 nM |  | 
8 | CCCCc1ccc(C(=O)c2c(Cl)cc(O)c(O)c2O)cc1 [DC2] | 1550 ± 924 nM | no significant difference | 
9 | CC(C)(C)c1ccc(C(=O)c2cc(O)c(O)cc2Cl)cc1 [SC1] | 1910 ± 521 nM | no significant difference | 
10 | CC(C)(C)c1ccc(C(=O)c2cc(O)c(O)cc2Br)cc1 [SB1] | 12 ± 4.8 nM | no significant difference | 
11 | CC(C)Cc1ccc(C(=O)c2cc(O)c(O)cc2Cl)cc1 [YC1] | 1910 ± 823 nM |  | 
